Experiments:
Type in all cases: in vivo
rice (Oryra sativa) = assay: Test B flooded paddy test; details: Oryza sativa, 250 g ai/ha, Flood; 0 to 100 scale where 0 is no effect and 100 is complete control; read-out: Rice plant response rating
Summary of the method: (§1)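 Flooding to 3 cm over soil accompanied treatment, which consisted of adding compound to the standing water around 2-leaf plants; depth was then maintained. Visual assessment versus controls followed at 13 to 15 d (scale 0–100, 0 meaning no effect).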

[1] = system: barnyardgrass (Echinochloa crus-galli); assay: Test B flooded paddy test; details: Echinochloa crus-galli, 250 g ai/ha, Flood; 0 to 100 scale where 0 is no effect and 100 is complete control; read-out: Barnyardgrass plant response rating
Summary of the method: as §1

[2] = system: sedge, umbrella (small-flower umbrella sedge, Cyperus difformis); assay: Test B flooded paddy test; details: Cyperus difformis, 250 g ai/ha, Flood; 0 to 100 scale where 0 is no effect and 100 is complete control; read-out: Sedge, Umbrella plant response rating
Summary of the method: as §1

[3] = system: ducksalad (Heteranthera limosa); assay: Test B flooded paddy test; details: Heteranthera limosa, 250 g ai/ha, Flood; 0 to 100 scale where 0 is no effect and 100 is complete control; read-out: Ducksalad plant response rating
Summary of the method: as §1

[4] = system: barnyardgrass (Echinochloa crus-galli); assay: Test A postemergence; details: Echinochloa crus-galli, post-emergence, 240 h, postemergence; for pest or weed control at 125 g/ha: 125 g ai/ha, visual injury vs untreated controls after approx. 10 d, 0 = no effect, 100 = complete control, read-out: Barnyardgrass plant response rating (0 to 100 scale); for pest or weed control at 500 g/ha: 500 g ai/ha, 0 to 100 scale, 0 is no effect, 100 is complete control, read-out: Barnyardgrass plant response rating
Summary of the method: (§2)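 Seeds sprayed preemergence with a directed soil spray, or plants at 2 to 10 cm height and one- to two-leaf stage sprayed postemergence, with test chemicals in a non-phytotoxic solvent mixture containing surfactant, in loam soil–sand blend. Injury rated visually against untreated controls after about 10 d in greenhouse, 0 (no effect) to 100 (complete control).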

corn (Zea mays) = assay: Test A postemergence; details: Zea mays, post-emergence, 240 h, postemergence; for plant injury at 125 g/ha: 125 g ai/ha, visual injury vs untreated controls after approx. 10 d, 0 = no effect, 100 = complete control, read-out: Corn plant response rating (0 to 100 scale); for plant injury at 500 g/ha: 500 g ai/ha, 0 to 100 scale, 0 is no effect, 100 is complete control, read-out: Corn plant response rating
Summary of the method: as §2

[5] = system: giant foxtail (Setaria faberii); assay: Test A postemergence; details: Setaria faberi, post-emergence, 240 h, postemergence; for pest or weed control at 125 g/ha: 125 g ai/ha, visual injury vs untreated controls after approx. 10 d, 0 = no effect, 100 = complete control, read-out: Foxtail, Giant plant response rating (0 to 100 scale); for pest or weed control at 500 g/ha: 500 g ai/ha, 0 to 100 scale, 0 is no effect, 100 is complete control, read-out: Foxtail, Giant plant response rating
Summary of the method: as §2

[6] = system: ryegrass, Italian (Italian ryegrass, Lolium multiflorum); assay: Test A postemergence; details: Lolium multiflorum, post-emergence, 240 h, postemergence; for pest or weed control at 125 g/ha: 125 g ai/ha, visual injury vs untreated controls after approx. 10 d, 0 = no effect, 100 = complete control, read-out: Ryegrass, Italian plant response rating (0 to 100 scale); for pest or weed control at 500 g/ha: 500 g ai/ha, 0 to 100 scale, 0 is no effect, 100 is complete control, read-out: Ryegrass, Italian plant response rating
Summary of the method: as §2

[7] = system: blackgrass (Alopecurus myosuroides); assay: Test A postemergence; details: Alopecurus myosuroides, post-emergence, 240 h, postemergence; for pest or weed control at 125 g/ha: 125 g ai/ha, visual injury vs untreated controls after approx. 10 d, 0 = no effect, 100 = complete control, read-out: Blackgrass plant response rating (0 to 100 scale); for pest or weed control at 500 g/ha: 500 g ai/ha, 0 to 100 scale, 0 is no effect, 100 is complete control, read-out: Blackgrass plant response rating
Summary of the method: as §2

[8] = system: Galium (catchweed bedstraw, Galium aparine); assay: Test A postemergence; details: Galium, post-emergence, 240 h, postemergence; for pest or weed control at 125 g/ha: 125 g ai/ha, visual injury vs untreated controls after approx. 10 d, 0 = no effect, 100 = complete control, read-out: Galium plant response rating (0 to 100 scale); for pest or weed control at 500 g/ha: 500 g ai/ha, 0 to 100 scale, 0 is no effect, 100 is complete control, read-out: Galium plant response rating
Summary of the method: as §2

[9] = system: pigweed (Amaranthus retroflexus); assay: Test A postemergence; details: Amaranthus retroflexus, post-emergence, 240 h, postemergence; for pest or weed control at 125 g/ha: 125 g ai/ha, visual injury vs untreated controls after approx. 10 d, 0 = no effect, 100 = complete control, read-out: Pigweed plant response rating (0 to 100 scale); for pest or weed control at 500 g/ha: 500 g ai/ha, 0 to 100 scale, 0 is no effect, 100 is complete control, read-out: Pigweed plant response rating
Summary of the method: as §2

[10] = system: ragweed (common ragweed, Ambrosia elatior); assay: Test A postemergence; details: Ambrosia artemisiifolia, post-emergence, 240 h, postemergence; for pest or weed control at 125 g/ha: 125 g ai/ha, visual injury vs untreated controls after approx. 10 d, 0 = no effect, 100 = complete control, read-out: Ragweed plant response rating (0 to 100 scale); for pest or weed control at 500 g/ha: 500 g ai/ha, 0 to 100 scale, 0 is no effect, 100 is complete control, read-out: Ragweed plant response rating
Summary of the method: as §2

[11] = system: wheat (Triticum aestivum); assay: Test A postemergence; details: Triticum aestivum, post-emergence, 240 h, postemergence; for plant injury at 125 g/ha: 125 g ai/ha, visual injury vs untreated controls after approx. 10 d, 0 = no effect, 100 = complete control, read-out: Wheat plant response rating (0 to 100 scale); for plant injury at 500 g/ha: 500 g ai/ha, 0 to 100 scale, 0 is no effect, 100 is complete control, read-out: Wheat plant response rating
Summary of the method: as §2

Row | SMILES | pest or weed control at 250 g/ha (rice (Oryra sativa)) | pest or weed control at 250 g/ha [1] | pest or weed control at 250 g/ha [2] | pest or weed control at 250 g/ha [3] | pest or weed control at 125 g/ha [4] | pest or weed control at 500 g/ha [4] | plant injury at 125 g/ha (corn (Zea mays)) | plant injury at 500 g/ha (corn (Zea mays)) | pest or weed control at 125 g/ha [5] | pest or weed control at 500 g/ha [5] | pest or weed control at 125 g/ha [6] | pest or weed control at 500 g/ha [6] | pest or weed control at 125 g/ha [7] | pest or weed control at 500 g/ha [7] | pest or weed control at 125 g/ha [8] | pest or weed control at 500 g/ha [8] | pest or weed control at 125 g/ha [9] | pest or weed control at 500 g/ha [9] | pest or weed control at 125 g/ha [10] | pest or weed control at 500 g/ha [10] | further results
1 | Cc1ccc([C@H]2CCN(C)C(=O)[C@@H]2C(=O)Nc2cccc(F)c2F)cc1 [Compound 1220] | 10% | 70% | 0% | 95% | 70% | 80% | 30% | 70% | 80% | 80% | 20% | 30% | 30% | 40% | 30% | 40% | 20% | 20% | 20% | 30% | plant injury at 125 g/ha [11]: 20%; plant injury at 500 g/ha [11]: 40%
2 | CN1CC[C@H](c2ccc(C(F)(F)F)cc2)[C@@H](C(=O)Nc2cccc(F)c2F)C1=O [Compound 1225] | 20% | 80% | 0% | 100% | 90% | 90% | 30% | 90% | 90% | 90% | 30% | 30% | 30% | 40% | 50% | 70% | 30% | 40% | 40% | 50% | plant injury at 125 g/ha [11]: 30%; plant injury at 500 g/ha [11]: 70%
3 | CSc1ccccc1NC(=O)[C@H]1C(=O)N(C)C[C@@H]1c1cccc(C)c1 [Compound 1232] | 0% | 55% | 0% | 95% | 80% | 80% | 0% | 70% | 80% | 90% | 30% | 60% | 0% | 40% | 20% | 60% | 0% | 40% | 0% | 50% | plant injury at 125 g/ha [11]: 0%
